≈ marks a conversion by molar mass, not a printed value.
Tested on: Mannheimia haemolytica
Test: minimum inhibitory concentration (MIC)
Experimental: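 Broth microdilution MIC (Sensititre BOPO7F bovine plate, CLSI methods) of 19 antimicrobials against field isolates of P. multocida, M. haemolytica, H. somni (deep nasopharyngeal swabs) and E. coli, Enterococcus spp. (rectal swabs) from weaned dairy heifers. Incubation 16-24 h at 35 C. MIC is the lowest concentration preventing visible growth. Values with <= or > lie at the tested range limits. Trimethoprim-sulfamethoxazole is given as the trimethoprim component of a 1:19 mixture.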

CC[C@H]1OC(=O)C[C@@H](O)[C@H](C)[C@@H](O[C@@H]2O[C@H](C)[C@@H](O)[C@H](N(C)C)[C@H]2O)[C@@H](CCN2C[C@H](C)C[C@H](C)C2)C[C@@H](C)C(=O)/C=C/C(C)=C/[C@@H]1CO[C@@H]1O[C@H](C)[C@@H](O)[C@@H](OC)[C@H]1OC [Tilmicosin]
Conditions	minimum inhibitory concentration [µg/mL]
isolate (source animal id): 8	4 (≈ 4.6 µM)
isolate (source animal id): 13	4 (≈ 4.6 µM)
isolate (source animal id): 18	4 (≈ 4.6 µM)
isolate (source animal id): 21	4 (≈ 4.6 µM)
isolate (source animal id): 25	> 16
isolate (source animal id): 27	> 16
isolate (source animal id): 28	16 (≈ 18.4 µM)
isolate (source animal id): 30	8 (≈ 9.2 µM)
isolate (source animal id): 31	> 16
isolate (source animal id): 32	4 (≈ 4.6 µM)
isolate (source animal id): 34	8 (≈ 9.2 µM)
isolate (source animal id): 36	> 16
isolate (source animal id): 37	> 16
isolate (source animal id): 40	4 (≈ 4.6 µM)
isolate (source animal id): 41	4 (≈ 4.6 µM)
isolate (source animal id): 43	4 (≈ 4.6 µM)
isolate (source animal id): 46	> 16
isolate (source animal id): 49	> 16
isolate (source animal id): 50	> 16
isolate (source animal id): 51	4 (≈ 4.6 µM)
isolate (source animal id): 52	4 (≈ 4.6 µM)
isolate (source animal id): 53	4 (≈ 4.6 µM)
isolate (source animal id): 55	4 (≈ 4.6 µM)
isolate (source animal id): 56	4 (≈ 4.6 µM)
isolate (source animal id): 57	> 16
isolate (source animal id): 100	> 16
isolate (source animal id): 103	> 16
isolate (source animal id): 107	16 (≈ 18.4 µM)
isolate (source animal id): 108	16 (≈ 18.4 µM)
isolate (source animal id): 112	> 16
isolate (source animal id): 113	> 16
isolate (source animal id): 121	> 16
isolate (source animal id): 122	> 16
isolate (source animal id): 123	> 16
isolate (source animal id): 126	> 16
isolate (source animal id): 133	> 16
isolate (source animal id): 135	> 16
isolate (source animal id): 138	> 16
isolate (source animal id): 141	> 16
isolate (source animal id): 142	> 16
isolate (source animal id): 145	16 (≈ 18.4 µM)
isolate (source animal id): 149	8 (≈ 9.2 µM)
isolate (source animal id): 151	8 (≈ 9.2 µM)
isolate (source animal id): 152	> 16
isolate (source animal id): 154	8 (≈ 9.2 µM)
isolate (source animal id): 159	> 16
isolate (source animal id): 162	> 16
isolate (source animal id): 170	16 (≈ 18.4 µM)
isolate (source animal id): 171	8 (≈ 9.2 µM)
isolate (source animal id): 172	16 (≈ 18.4 µM)
isolate (source animal id): 173	16 (≈ 18.4 µM)
isolate (source animal id): 179	8 (≈ 9.2 µM)
isolate (source animal id): 180	4 (≈ 4.6 µM)
isolate (source animal id): 183	4 (≈ 4.6 µM)
isolate (source animal id): 186	4 (≈ 4.6 µM)
isolate (source animal id): 187	8 (≈ 9.2 µM)
isolate (source animal id): 188	4 (≈ 4.6 µM)
isolate (source animal id): 190	4 (≈ 4.6 µM)
isolate (source animal id): 191	16 (≈ 18.4 µM)
isolate (source animal id): 192	8 (≈ 9.2 µM)
isolate (source animal id): 201	16 (≈ 18.4 µM)
isolate (source animal id): 202	16 (≈ 18.4 µM)
isolate (source animal id): 209	16 (≈ 18.4 µM)
isolate (source animal id): 211	16 (≈ 18.4 µM)
isolate (source animal id): 220	16 (≈ 18.4 µM)
isolate (source animal id): 221	8 (≈ 9.2 µM)
isolate (source animal id): 223	8 (≈ 9.2 µM)
isolate (source animal id): 233	8 (≈ 9.2 µM)
isolate (source animal id): 237	> 16
isolate (source animal id): 241	> 16
isolate (source animal id): 252	> 16
isolate (source animal id): 253	> 16
isolate (source animal id): 259	> 16
isolate (source animal id): 260	> 16
isolate (source animal id): 262	> 16
isolate (source animal id): 282	> 16
isolate (source animal id): 287	> 16
isolate (source animal id): 288	4 (≈ 4.6 µM)
isolate (source animal id): 291	4 (≈ 4.6 µM)
isolate (source animal id): 293	> 16
isolate (source animal id): 298	> 16
isolate (source animal id): 299	> 16
isolate (source animal id): 300	8 (≈ 9.2 µM)
isolate (source animal id): 302	> 16
isolate (source animal id): 304	> 16
isolate (source animal id): 306	4 (≈ 4.6 µM)
isolate (source animal id): 308	4 (≈ 4.6 µM)
isolate (source animal id): 309	4 (≈ 4.6 µM)
isolate (source animal id): 313	> 16
isolate (source animal id): 318	> 16
isolate (source animal id): 320	8 (≈ 9.2 µM)
isolate (source animal id): 321	> 16
isolate (source animal id): 323	> 16
isolate (source animal id): 324	> 16
isolate (source animal id): 326	> 16
isolate (source animal id): 328	> 16
isolate (source animal id): 329	> 16
isolate (source animal id): 333	> 16
isolate (source animal id): 335	> 16
isolate (source animal id): 338	> 16

Reference: the supplement of paper PMC8612539
